For series [1], the target named is Free fatty acid receptor 1 (Homo sapiens) (UniProt O14842). The series is described as follows: Agonist activity at FFAR1 (unknown origin) assessed as induction of calcium mobilization at 10 uM by fluorescence assay. In kind it is functional.
For series [2] the target is unchanged. The series is described as follows: Antagonist activity at FFAR1 (unknown origin) assessed as inhibition of GW9508-induced calcium mobilization at 10 uM preincubated for 20 mins followed by GW9508 induction by fluorescence assay. It counts as functional.
Series [3] deals with T1, Peroxisome proliferator-activated receptor gamma (Homo sapiens) (UniProt P37231).
T1 sequence (whole entry): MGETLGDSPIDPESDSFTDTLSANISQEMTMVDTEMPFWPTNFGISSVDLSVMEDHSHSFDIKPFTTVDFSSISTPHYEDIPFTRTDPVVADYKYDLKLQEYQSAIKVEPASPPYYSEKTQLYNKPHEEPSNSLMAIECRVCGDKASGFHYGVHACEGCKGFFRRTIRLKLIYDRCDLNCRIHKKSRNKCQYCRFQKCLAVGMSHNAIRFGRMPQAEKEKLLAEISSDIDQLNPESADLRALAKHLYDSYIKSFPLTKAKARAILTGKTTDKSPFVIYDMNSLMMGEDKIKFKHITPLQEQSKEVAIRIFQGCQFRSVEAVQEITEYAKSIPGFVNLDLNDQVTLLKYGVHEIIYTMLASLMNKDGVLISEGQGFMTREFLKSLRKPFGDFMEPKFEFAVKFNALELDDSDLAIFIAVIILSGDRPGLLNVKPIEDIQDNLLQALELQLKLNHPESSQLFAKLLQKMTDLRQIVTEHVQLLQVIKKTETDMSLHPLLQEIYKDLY
Kind of series: Transactivation of human PPARgamma LBD transfected in mouse embryo fibroblasts at 100 uM after 18 hrs by Gal4-responsive luciferase reporter gene assay relative to rosiglitazone. On the technique in general: A reporter such as luciferase makes a cellular process visible.

Series [4] in a line: Cytotoxicity against mouse embryo fibroblasts. In kind it is cell-based. The settings on record: fibroblast.
Series [5] has as its target T1, Peroxisome proliferator-activated receptor gamma (Homo sapiens). The series is described as follows: Transactivation of human PPARgamma LBD transfected in mouse embryo fibroblasts at 100 uM after 18 hrs by Gal4-responsive luciferase reporter gene assay relative to vehicle-treated control.
Series [6] concerns the target T2, Peroxisome proliferator-activated receptor alpha (Homo sapiens) (UniProt Q07869).
T2 sequence (whole entry): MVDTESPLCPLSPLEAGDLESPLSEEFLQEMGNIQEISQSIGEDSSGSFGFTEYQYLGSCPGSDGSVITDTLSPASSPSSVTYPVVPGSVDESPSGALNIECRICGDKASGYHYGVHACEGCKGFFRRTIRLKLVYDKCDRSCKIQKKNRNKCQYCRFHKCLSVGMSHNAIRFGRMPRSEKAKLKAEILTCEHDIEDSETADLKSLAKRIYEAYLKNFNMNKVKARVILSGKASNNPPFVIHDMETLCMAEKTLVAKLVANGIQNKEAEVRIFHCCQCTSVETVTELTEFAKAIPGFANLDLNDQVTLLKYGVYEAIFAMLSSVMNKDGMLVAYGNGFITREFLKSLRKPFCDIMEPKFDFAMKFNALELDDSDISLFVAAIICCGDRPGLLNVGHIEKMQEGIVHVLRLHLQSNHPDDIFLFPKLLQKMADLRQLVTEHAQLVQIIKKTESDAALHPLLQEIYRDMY
The series is described as follows: Transactivation of PPARalpha (unknown origin) relative to control.

In series [7] the target is T3, Retinoic acid receptor RXR-alpha (Homo sapiens) (UniProt P19793).
T3 sequence (whole entry): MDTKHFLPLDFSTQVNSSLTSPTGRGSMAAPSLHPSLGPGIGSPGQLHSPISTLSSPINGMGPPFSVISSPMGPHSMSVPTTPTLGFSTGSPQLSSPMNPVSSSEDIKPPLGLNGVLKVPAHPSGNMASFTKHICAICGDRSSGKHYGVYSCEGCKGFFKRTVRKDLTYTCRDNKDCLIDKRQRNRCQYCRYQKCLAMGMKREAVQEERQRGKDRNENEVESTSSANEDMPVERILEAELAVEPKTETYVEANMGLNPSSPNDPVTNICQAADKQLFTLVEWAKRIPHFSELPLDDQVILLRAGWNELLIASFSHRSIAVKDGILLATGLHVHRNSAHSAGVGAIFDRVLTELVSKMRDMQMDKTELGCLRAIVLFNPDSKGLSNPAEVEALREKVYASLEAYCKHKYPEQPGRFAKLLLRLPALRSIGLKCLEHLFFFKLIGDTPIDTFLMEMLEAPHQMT
Kind of series: Transactivation of RXRalpha (unknown origin) relative to control.

For series [8], the target named is T4, Peroxisome proliferator-activated receptor gamma (Homo sapiens, UniProt P37231).
T4 sequence (P37231 whole entry): T1 sequence (whole entry)
Kind of series: Binding affinity to GST-tagged human PPARgamma LBD by ligand displacement assay.

Series [9] has as its target T5, Peroxisome proliferator-activated receptor delta (Homo sapiens) (UniProt Q03181).
T5 sequence (whole entry): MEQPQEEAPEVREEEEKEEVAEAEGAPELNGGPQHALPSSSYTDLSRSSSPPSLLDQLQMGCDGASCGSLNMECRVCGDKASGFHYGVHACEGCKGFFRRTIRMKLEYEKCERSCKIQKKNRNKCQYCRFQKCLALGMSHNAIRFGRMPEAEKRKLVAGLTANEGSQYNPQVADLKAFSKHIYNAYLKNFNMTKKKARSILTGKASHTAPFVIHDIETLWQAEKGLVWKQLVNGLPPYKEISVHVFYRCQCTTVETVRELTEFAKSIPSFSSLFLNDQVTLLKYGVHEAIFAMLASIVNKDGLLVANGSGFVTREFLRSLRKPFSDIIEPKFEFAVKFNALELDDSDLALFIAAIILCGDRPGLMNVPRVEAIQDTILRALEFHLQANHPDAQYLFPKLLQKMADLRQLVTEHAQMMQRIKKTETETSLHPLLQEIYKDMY
The series is described as follows: Transactivation of PPARdelta (unknown origin) relative to control.

SMILES strings stand for the structures. Activity calls are given as the source filed them. The rule behind the calls is not given here.

By IC50 is commonly meant the concentration that inhibits the measured activity by half. Low readings indicate inhibition by little substance, high ones a need for much substance.

Chain of Free fatty acid receptor 1 (Homo sapiens) (O14842 whole entry): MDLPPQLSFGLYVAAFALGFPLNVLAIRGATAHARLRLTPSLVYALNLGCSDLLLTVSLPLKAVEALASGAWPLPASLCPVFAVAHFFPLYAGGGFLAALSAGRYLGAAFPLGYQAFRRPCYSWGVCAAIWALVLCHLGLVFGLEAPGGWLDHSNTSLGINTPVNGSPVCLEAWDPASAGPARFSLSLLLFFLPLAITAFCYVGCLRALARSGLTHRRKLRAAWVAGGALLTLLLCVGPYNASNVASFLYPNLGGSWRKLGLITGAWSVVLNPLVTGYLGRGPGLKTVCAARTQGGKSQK

Consider `CCN(Cc1ccc(C(=O)N(Cc2ccc(CCC(=O)O)cc2)C(C)C)cc1)C(=O)c1ccccc1`, for which the result in series [1] was inactive. In [2], the inhibition result is “inactive”. In addition, the Activity is 11.6% in [3] and “Non-toxic” in series [4]. In [5], this compound showed a fold change (FC) of 6.9.

On to `CCN(Cc1ccc(CCC(=O)O)cc1)C(=O)c1ccc(CN(C(=O)c2ccccc2)C(C)C)cc1`, for which the outcome in [1] was inactive. In [2], the inhibition entry is “inactive”. Further, the Activity in series [3] was 6.9%; in [4] it was “Non-toxic”. The fold change (FC) in series [5] was determined as 3.6.

For the compound `CC(C)N(Cc1ccc(C(=O)N(Cc2ccc(CCC(=O)O)cc2)C(C)C)cc1)C(=O)c1ccccc1`, in series [1], the outcome was inactive. Further, the inhibition result in [2] was “inactive”. The Activity in series [3] was 24.7%; in [4], “Non-toxic”. Further, in series [5], the fold change (FC) amounted to 14.7.

In the case of `CC(C)N(Cc1cccc(C(=O)NCc2ccc(CCC(=O)O)cc2)c1)C(=O)c1ccccc1`, the result in series [1] was inactive. The inhibition entry in series [2] is “inactive”. Further, the Activity is 18.4% in series [3] and “Non-toxic” in series [4]. The compound also returned a fold change (FC) in [5] of 7.3.

As to `CC(C)N(Cc1ccc(CCC(=O)O)cc1)C(=O)c1cccc(CNC(=O)c2ccccc2)c1`, the outcome in [1] was inactive. The inhibition entry in series [2] is “inactive”. Besides, the fold change (FC) in [6] was less than 2; in [7], 5; in [9] it was less than 2; in series [5], 13.4. In addition, the Activity was 27.2% in series [3] and “Non-toxic” in [4]. In addition, the IC50 in series [8] worked out at 38.7 µM.

For the compound `CCN(Cc1cccc(C(=O)N(Cc2ccc(CCC(=O)O)cc2)C(C)C)c1)C(=O)c1ccccc1`, the result in series [1] was inactive. Moreover, in [2], the inhibition entry is “inactive”. For the same compound, the figures for the Activity in [3] and in series [4] were 11.8% and “Non-toxic”, respectively. Moreover, in [5], the fold change (FC) amounted to 5.8.

For `CCN(Cc1cccc(C(=O)N(CC)Cc2ccc(CCC(=O)O)cc2)c1)C(=O)c1ccccc1`, the outcome in series [1] was inactive. Moreover, the inhibition entry in [2] was “inactive”. The fold change (FC) in [6] was greater than 2; in series [7], less than 2; in series [9], less than 2; in series [5] it was 11.2. The Activity was 20.9% in [3] and “Non-toxic” in [4]. Besides, in series [8], the IC50 came out at 56.2 µM.

Consider `O=C(O)CCc1ccc(CNC(=O)c2ccc(CNC(=O)c3ccccc3)cc2)cc1`, for which the result in [1] was inactive. Moreover, in series [2], the inhibition entry is “inactive”. The Activity in series [3] was 5.4%; in series [4], “Non-toxic”. The fold change (FC) in series [5] turned out to be 2.5.

On to `CCN(Cc1ccc(C(=O)NCc2ccc(CCC(=O)O)cc2)cc1)C(=O)c1ccccc1`, for which the result in series [1] was inactive. The inhibition entry in series [2] is “inactive”. Also, the Activity in series [3] was 13.1%; in series [4], “Non-toxic”. This compound came in with a fold change (FC) in series [5] of 6.

As for `CC(C)N(Cc1cccc(C(=O)N(Cc2ccc(CCC(=O)O)cc2)C(C)C)c1)C(=O)c1ccccc1`, the outcome in series [1] was inactive. In addition, the inhibition result in series [2] is “inactive”. In addition, the Activity in [3] is 10.7%; in series [4], “Non-toxic”. In addition, the fold change (FC) in series [5] came out at 5.3.

As to `CCN(Cc1ccc(CCC(=O)O)cc1)C(=O)c1cccc(CN(C(=O)c2ccccc2)C(C)C)c1`, the outcome in series [1] was inactive. For the same compound, the inhibition entry in series [2] is “inactive”. Further, the Activity in series [3] was 11.6%; in series [4], “Non-toxic”. For the same compound, in series [5], the fold change (FC) is 6.2.

`CC(C)N(Cc1ccc(CCC(=O)O)cc1)C(=O)c1ccc(CNC(=O)c2ccccc2)cc1`: the outcome in series [1] was inactive. For the same compound, in series [2], the inhibition entry is “inactive”. Further, the Activity was 21.2% in [3] and “Non-toxic” in [4]. This compound registered a fold change (FC) in [5] of 12.6.

With `CCN(Cc1cccc(C(=O)NCc2ccc(CCC(=O)O)cc2)c1)C(=O)c1ccccc1`, in series [1], the outcome was inactive. Further, the inhibition result in series [2] was “inactive”. The Activity in [3] was 23.5%; in series [4], “Non-toxic”. In series [5], this compound yielded a fold change (FC) of 9.3.

As for `CC(C)N(Cc1ccc(C(=O)NCc2ccc(CCC(=O)O)cc2)cc1)C(=O)c1ccccc1`, the result in [1] was inactive. In addition, in series [2], the inhibition result is “inactive”. Moreover, the Activity in [3] is 12.5%; in series [4], “Non-toxic”. For the same compound, the fold change (FC) in series [5] turned out to be 5.7.

Take `CCN(Cc1ccc(CCC(=O)O)cc1)C(=O)c1ccc(CNC(=O)c2ccccc2)cc1`: the outcome in [1] was inactive. In addition, the inhibition entry in series [2] was “inactive”. Also, the values for the Activity in [3] and in [4] were 11.8% and “Non-toxic”, respectively. For the same compound, the fold change (FC) in [5] was determined as 6.2.

For the compound `CCN(Cc1ccc(C(=O)N(CC)Cc2ccc(CCC(=O)O)cc2)cc1)C(=O)c1ccccc1`, the result in series [1] was inactive. Also, the inhibition result in series [2] was “inactive”. Moreover, the figures for the Activity in [3] and in series [4] were 13.8% and “Non-toxic”, respectively. Besides, the fold change (FC) in series [5] was found to be 7.3.

For the compound `O=C(O)CCc1ccc(CNC(=O)c2cccc(CNC(=O)c3ccccc3)c2)cc1`, in series [1], the result was inactive. Moreover, the inhibition entry in [2] is “inactive”. The fold change (FC) in [6] is less than 2; in series [7], less than 2; in series [9], less than 2; in [5], 5.6. Also, the Activity was 14.1% in [3] and “Non-toxic” in [4]. In series [8], this compound gave an IC50 of 62.7 µM.

As to `CCN(Cc1ccc(CCC(=O)O)cc1)C(=O)c1cccc(CNC(=O)c2ccccc2)c1`, the outcome in series [1] was inactive. The inhibition entry in series [2] was “inactive”. For the same compound, the Activity was 15.1% in series [3] and “Non-toxic” in [4]. For the same compound, the fold change (FC) in series [5] amounted to 8.1.
